Row | melting point [°C] | Structure (SMILES)
1 | 141 to 143 | O=C(O)Cc1csc2cc(SCc3cccc4cn(-c5ccc(C(F)(F)F)cc5)nc34)ccc12 [Example 5, 6-[2-(4-Trifluoromethylphenyl)-2H-indazol-7-ylmethylsulfanyl]benzo[b]thiophen-3-ylacetic Acid]
2 | 125 to 127 | Cc1cc(SCc2cccc3nn(-c4ccc(C(F)(F)F)cc4)cc23)ccc1OC(C)(C)C(=O)O [Example 71, 2-Methyl-2-{2-methyl-4-[2-(4-trifluoromethylphenyl)-2H-indazol-4-ylmethylsulfanyl]phenoxy}propionic Acid]
3 | 120 to 123 | Cc1cc(SCc2cccc3cnn(-c4ccc(C(F)(F)F)cc4)c23)ccc1CCC(=O)O [Example 33, 3-{2-Methyl-4-[1-(4-trifluoromethylphenyl)-1H-indazol-7-ylmethylsulfanyl]phenyl}propionic Acid]
4 | 158 to 160 | CC(Oc1ccc(SC(C)(C)C(=O)O)cc1)c1cccc2cn(-c3ccc(C(F)(F)F)cc3)nc12 (racemic) [Example 43, (+/−)-2-Methyl-2-(4-{1-[2-(4-trifluoromethylphenyl)-2H-indazol-7-yl]ethoxy}phenylsulfanyl)propionic Acid]
5 | 148 to 150 | CC(Sc1ccc(OC(C)(C)C(=O)O)cc1)c1cccc2nn(-c3ccc(C(F)(F)F)cc3)cc12 (racemic) [Example 73, (+/−)-2-Methyl-2-(4-{1-[2-(4-trifluoromethylphenyl)-2H-indazol-4-yl]ethylsulfanyl}phenoxy)propionic Acid]
6 | 178 to 180 | CC(C)(Oc1ccc(OCc2cccc3cn(-c4ccc(C(F)(F)F)cc4)nc23)cc1)C(=O)O [Example 39, 2-Methyl-2-{4-[2-(4-trifluoromethylphenyl)-2H-indazol-7-ylmethoxy]phenoxy}propionic Acid]
7 | 112 to 114 | CC(C)(Oc1ccc(SCCc2cccc3cn(-c4ccc(C(F)(F)F)cc4)nc23)cc1)C(=O)O [Example 50, 2-Methyl-2-(4-{2-[2-(4-trifluoromethylphenyl)-2H-indazol-7-yl]ethylsulfanyl}phenoxy)propionic Acid]
8 | 116 to 118 | Cc1cc(SCc2ccc3cn(-c4ccc(C(F)(F)F)cc4)nc3c2)ccc1OC(C)(C)C(=O)O [Example 53, 2-Methyl-2-{2-methyl-4-[2-(4-trifluoromethylphenyl)-2H-indazol-6-ylmethylsulfanyl]phenoxy}propionic Acid]
9 | 137 to 139 | Cc1cc(SCCc2cccc3cn(-c4ccc(C(F)(F)F)cc4)nc23)ccc1OCC(=O)O [Example 46, (2-Methyl-4-{2-[2-(4-trifluoromethylphenyl)-2H-indazol-7-yl]ethylsulfanyl}phenoxy)acetic Acid]
10 | 133 to 135 | CC(C)(Sc1ccc(OCc2ccc3cn(-c4ccc(C(F)(F)F)cc4)nc3c2)cc1)C(=O)O [Example 55, 2-Methyl-2-{4-[2-(4-trifluoromethylphenyl)-2H-indazol-6-ylmethoxy]phenylsulfanyl}propionic Acid]
11 | 192 to 194 | CC(C)(Sc1ccc(OCc2ccc3nn(-c4ccc(C(F)(F)F)cc4)cc3c2)cc1)C(=O)O [Example 62, 2-Methyl-2-{4-[2-(4-trifluoromethylphenyl)-2H-indazol-5-ylmethoxy]phenylsulfanyl}propionic Acid]
12 | 214 to 216 | CC(C)(Sc1ccc(OCc2cccc3cnn(-c4ccc(C(F)(F)F)cc4)c23)cc1)C(=O)O [Example 97, 2-Methyl-2-{4-[1-(4-trifluoromethylphenyl)-1H-indazol-7-ylmethoxy]phenylsulfanyl}propionic Acid]
13 | 66 to 68 | Cc1cc(OC(C)c2cccc3cn(-c4ccc(C(F)(F)F)cc4)nc23)ccc1CCC(=O)O (racemic) [Example 12, (+/−)-3-(2-Methyl-4{1-[2-(4-trifluoromethylphenyl)-2H-indazol-7yl]ethoxy}phenyl)propionic Acid]
14 | 181 to 186 | Cc1cc(SC(c2ccccc2)c2cccc3c2cnn3-c2ccc(C(F)(F)F)cc2)ccc1OC(C)(C)C(=O)O (racemic) [Example 92, (+/−)-2-Methyl-2-(2-methyl-4-{phenyl-[1-(4-trifluoromethylphenyl)-1H-indazol-4-yl]methylsulfanyl}phenoxy)propionic Acid]
15 | 115 to 117 | CCc1cc(SCCc2cccc3cn(-c4ccc(C(F)(F)F)cc4)nc23)ccc1OCC(=O)O [Example 45, (2-Ethyl-4-{2-[2-(4-trifluoromethylphenyl)-2H-indazol-7-yl]ethylsulfanyl}phenoxy)acetic Acid]
16 | 153 to 155 | Cc1cc(SC(C)c2cccc3nn(-c4ccc(C(F)(F)F)cc4)cc23)ccc1OC(C)(C)C(=O)O (racemic) [Example 72, (+/−)-2-Methyl-2-(2-methyl-4-{1-[2-(4-trifluoromethylphenyl)-2H-indazol-4-yl]ethylsulfanyl}phenoxy)propionic Acid]
17 | 99 to 102 | CC(Oc1ccc(OC(C)(C)C(=O)O)cc1)c1cccc2c1cnn2-c1ccc(C(F)(F)F)cc1 (racemic) [Example 85, (+/−)-2-Methyl-2-(4-{1-[1-(4-trifluoromethylphenyl)-1H-indazol-4-yl]ethoxy}phenoxy)propionic Acid]

Row | melting point [°C] | Structure (SMILES)
18 | 109 to 111 | CC(Sc1ccc(OC(C)(C)C(=O)O)cc1)c1ccc2nn(-c3ccc(C(F)(F)F)cc3)cc2c1 (racemic) [Example 68, (+/−)-2-Methyl-2-(4-{1-[2-(4-trifluoromethylphenyl)-2H-indazol-5-yl]ethylsulfanyl}phenoxy)propionic Acid]
19 | 59 to 61 | Cc1cc(SC(C)c2cccc3cn(-c4ccc(C(F)(F)F)cc4)nc23)ccc1CCC(=O)O (racemic) [Example 9, (+/−)-3-(2-Methyl-4-{1-[2-(4-trifluoromethylphenyl)-2H-indazol-7-yl]ethylsulfanyl}phenyl)propionic Acid]
20 | 183 to 185 | O=C(O)Cc1csc2cc(SCc3cccc4nn(-c5ccc(C(F)(F)F)cc5)cc34)ccc12 [Example 29, 6-[2-(4-Trifluoromethylphenyl)-2H-indazol-4-ylmethylsulfanyl]benzo[b]thiophen-3-ylacetic Acid]
21 | 62 to 64 | Cc1cc(SC(C)c2cccc3cn(-c4ccc(C(F)(F)F)cc4)nc23)ccc1OCC(=O)O (racemic) [Example 8, (+/−)-2-Methyl-4-{1-[2-(4-trifluoromethylphenyl)-2H-indazol-7-yl]ethylsulfanyl}phenoxyacetic Acid]
22 | 175 to 177 | CC(C)(Sc1ccc(OCc2cccc3cn(-c4ccc(C(F)(F)F)cc4)nc23)cc1)C(=O)O [Example 38, 2-Methyl-2-{4-[2-(4-trifluoromethylphenyl)-2H-indazol-7-ylmethoxy]phenylsulfanyl}propionic Acid]
23 | 119 to 121 | CCc1cc(SCc2ccc3cn(-c4ccc(C(F)(F)F)cc4)nc3c2)ccc1OCC(=O)O [Example 21, 2-Ethyl-4-[2-(4-trifluoromethylphenyl)-2H-indazol-6-ylmethylsulfanyl]phenoxyacetic Acid]
24 | 133 to 135 | Cc1cc(OCc2cccc3cn(-c4ccc(C(F)(F)F)cc4)nc23)ccc1CCC(=O)O [Example 6, 3-{2-Methyl-4-[2-(4-trifluoromethylphenyl)-2H-indazol-7-ylmethoxy]phenyl}propionic Acid]
25 | 132 to 134 | Cc1cc(SCc2cccc3c2cnn3-c2ccc(C(F)(F)F)cc2)ccc1OCC(=O)O [Example 30, 2-Methyl-4-[1-(4-trifluoromethylphenyl)-1H-indazol-4-ylmethylsulfanyl]phenoxyacetic Acid]
26 | 176 to 178 | CC(C)(Oc1ccc(SCc2ccc3cn(-c4ccc(C(F)(F)F)cc4)nc3c2)cc1)C(=O)O [Example 54, 2-Methyl-2-{4-[2-(4-trifluoromethylphenyl)-2H-indazol-6-ylmethylsulfanyl]phenoxy}propionic Acid]
27 | 122 to 124 | CC(C)(Oc1ccc(OCCc2cccc3cn(-c4ccc(C(F)(F)F)cc4)nc23)cc1)C(=O)O [Example 47, 2-Methyl-2-(4-{2-[2-(4-trifluoromethylphenyl)-2H-indazol-7-yl]ethoxy}phenoxy)propionic Acid]
28 | 190 to 192 | CCc1cc(OCc2ccc3cn(-c4ccc(C(F)(F)F)cc4)nc3c2)ccc1CCC(=O)O [Example 22, 3-{2-Ethyl-4-[2-(4-trifluoromethylphenyl)-2H-indazol-6-ylmethoxy]phenyl}propionic Acid]
29 | 118 to 120 | Cc1cc(SC(C)(C)c2cccc3cn(-c4ccc(C(F)(F)F)cc4)nc23)ccc1OCC(=O)O [Example 14, 2-Methyl-4-{1-methyl-1-[2-(4-trifluoromethylphenyl)-2H-indazol-7-yl]ethylsulfanyl}phenoxyacetic Acid]
30 | 88 to 90 | Cc1cc(SCc2cccc3cn(-c4ccc(C(F)(F)F)cc4)nc23)ccc1CCC(=O)O [Example 2, 3-{2-Methyl-4-[2-(4-trifluoromethylphenyl)-2H-indazol-7-ylmethylsulfanyl]phenyl}propionic Acid]
31 | 122 to 124 | CCc1cc(SCc2cccc3c2cnn3-c2ccc(C(F)(F)F)cc2)ccc1OCC(=O)O [Example 31, 2-Ethyl-4-[1-(4-trifluoromethylphenyl)-1H-indazol-4-ylmethylsulfanyl]phenoxyacetic Acid]
32 | 157 to 159 | CCc1cc(OCc2cccc3cn(-c4ccc(C(F)(F)F)cc4)nc23)ccc1CCC(=O)O [Example 7, 3-{2-Ethyl-4-[2-(4-trifluoromethylphenyl)-2H-indazol-7-ylmethoxy]phenol}propionic Acid]
33 | 156 to 158 | Cc1cc(OC(C)c2ccc3cn(-c4ccc(C(F)(F)F)cc4)nc3c2)ccc1OC(C)(C)C(=O)O (racemic) [Example 57, (+/−)-2-Methyl-2-(2-methyl-4-{1-[2-(4-trifluoromethylphenyl)-2H-indazol-6-yl]ethoxy}phenoxy)propionic Acid]
34 | 119 to 121 | Cc1cc(OCc2ccc3cn(-c4ccc(C(F)(F)F)cc4)nc3c2)ccc1OC(C)(C)C(=O)O [Example 51, 2-Methyl-2-{2-methyl-4-[2-(4-trifluoromethylphenyl)-2H-indazol-6-ylmethoxy]phenoxy}propionic Acid]

From patent US7544707B2, “Bicyclic derivatives as PPAR modulators” (Eli Lilly and Company, priority 2003, dated 2009)
